The text below walks through data of patent publication US12351565B2, “Aromatic compound and preparation method therefor and use thereof” (SHANGHAI JIANHE PHARMACEUTICAL & TECHNOLOGY CO. LTD., priority 2018, dated 2025).

Molecules are shown by their SMILES.

One data set concerns C57 mice. As to the kind of experiment: Forced swimming experiment, oral administration to mice. Format: in vivo. The settings on record: inhibition of immobility time, C57 mice. An outline of the steps: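 Male C57 mice (6 weeks) dosed once orally at 20 mg/kg in 0.9% NaCl, tested 1 h and 24 h later after a 10 min pre-swim the day before. Immobility over the last 4 min of a 6 min swim (water 23-25° C); inhibition rate (%) calculated against blank group at each time.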

Data set [1] is described as follows: In vivo pharmacokinetic experiment in mice. The settings on record: C57 mice.
Data set [2] can be described thus: Distribution in mouse brain tissue. Format: in vivo, C57 mice. Here is the method:
Healthy male C57 mice were randomly divided into groups with 3 mice in each group, and the test compound was administrated intragastrically. See Table 10 below for specific arrangements:
Each test compound was dissolved in physiological saline to prepare a certain concentration of solution for administration.
One day before administration, the mice were fasted and allowed to drink freely for 12-14 h. The mice were fed 4 h after administration.
After the animals were bled, the brain tissue was collected. After washing, 50% ice methanol was added for homogenate at 1:4 (m/v). The collection time points was 10 min, 15 min, 30 min, 1 h, 2 h after administration of the test substance; 30.0 μL of tissue sample was taken (the sample was taken out from the refrigerator at −80° C., vortexed for 30 seconds after natural melting at room temperature) and added into a 1.5 mL centrifuge tube. 300.0 μL internal standard solution (30 ng/mL […] acetonitrile solution) was added, the mixture was vortex for 60 seconds and then centrifuged for 3 minutes (centrifugal force was 12000 rpm); 75 μL of the supernatant was taken and transferred to 96-well injection plate loaded with equal volume of water, shaken and mixed well, and subjected to LC-MS/MS analysis, wherein injection volume was 10 μL.

For a further data set, the target named is T1, hERG potassium channel (Homo sapiens, UniProt Q12809).
T1 construct: expressed in transfected cells
T1 sequence (Q12809 whole entry): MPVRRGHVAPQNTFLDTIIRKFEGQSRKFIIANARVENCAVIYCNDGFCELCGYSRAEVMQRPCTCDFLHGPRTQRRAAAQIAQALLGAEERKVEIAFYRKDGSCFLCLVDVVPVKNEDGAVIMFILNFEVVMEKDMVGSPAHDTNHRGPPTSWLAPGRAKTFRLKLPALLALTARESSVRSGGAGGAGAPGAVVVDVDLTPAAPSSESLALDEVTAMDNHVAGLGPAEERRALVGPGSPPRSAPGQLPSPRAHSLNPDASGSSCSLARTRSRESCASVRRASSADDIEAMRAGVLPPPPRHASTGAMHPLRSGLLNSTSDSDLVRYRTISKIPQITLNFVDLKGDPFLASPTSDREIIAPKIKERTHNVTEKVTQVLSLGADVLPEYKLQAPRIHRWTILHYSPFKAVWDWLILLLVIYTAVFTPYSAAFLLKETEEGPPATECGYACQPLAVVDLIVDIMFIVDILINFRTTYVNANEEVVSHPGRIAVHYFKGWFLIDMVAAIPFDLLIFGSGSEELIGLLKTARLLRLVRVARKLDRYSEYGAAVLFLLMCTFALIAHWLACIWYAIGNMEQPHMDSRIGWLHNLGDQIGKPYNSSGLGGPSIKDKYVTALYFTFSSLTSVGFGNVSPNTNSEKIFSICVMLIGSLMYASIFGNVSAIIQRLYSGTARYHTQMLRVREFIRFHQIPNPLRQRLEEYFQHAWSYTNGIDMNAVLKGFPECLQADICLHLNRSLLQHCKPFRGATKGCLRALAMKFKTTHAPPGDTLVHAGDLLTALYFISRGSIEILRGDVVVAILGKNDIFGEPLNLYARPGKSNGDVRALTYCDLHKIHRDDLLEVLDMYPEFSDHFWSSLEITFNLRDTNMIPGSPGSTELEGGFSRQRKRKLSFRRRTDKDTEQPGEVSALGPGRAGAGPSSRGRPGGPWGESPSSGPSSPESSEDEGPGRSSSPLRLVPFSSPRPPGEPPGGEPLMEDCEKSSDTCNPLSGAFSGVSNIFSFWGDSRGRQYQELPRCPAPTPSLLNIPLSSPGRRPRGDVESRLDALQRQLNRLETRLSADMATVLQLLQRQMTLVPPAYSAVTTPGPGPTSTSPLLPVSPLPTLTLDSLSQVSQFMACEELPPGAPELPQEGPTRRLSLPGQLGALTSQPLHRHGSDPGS
As to the kind of experiment: hERG potassium channel inhibition experiment (automatic patch clamp, CHO-hERG cells). It is filed as cell-based. The settings on record: Qpatch, highest tested concentration 40 μM, read-out: IC50, blocking effect on the hERG potassium current. The method, then: Fully automatic patch clamps were used to test the blocking effect of the compounds of the present invention on the hERG potassium current on a stable cell line transfected with hERG potassium channels.
CHO-hERG cells were cultured in 175 cm^2 culture flask. When the cell grew to 60-80% confluence, the culture medium was removed. The cells were washed with 7 ml PBS (Phosphate Buffered Saline) once, and then 3 ml Detachin was added to digest.
After the digestion was completed, 7 ml culture medium was added to neutralize. The mixture was centrifuged, and after the supernatant was removed, 5 ml culture medium was added to resuspend to ensure the cell density was 2×10^6-5×10^6/ml.
Single-cell high-impedance sealing and whole-cell mode formation were all automatically completed by using the Qpatch instrument. After the recording mode was obtained, the cell was clamped at −80 millivolts. Before +40 millivolt depolarization stimulation for 5 seconds was given, −50 millivolt pre-voltage for 50 millisecond was first given, then repolarized to −50 millivolt for 5 seconds, and then returned to −80 millivolt. This voltage stimulus was applied every 15 seconds. After recording for 2 min, extracellular fluid was given, and recording was conducted for 5 min, and then the dosing process started. The compound concentration started from the lowest test concentration, and each test concentration was given for 2.5 min. […] At least 3 cells per concentration (n≥3) were tested.
20 mM compound mother liquor was diluted with extracellular fluid. 5 μL of 20 mM compound mother liquor was taken and added into 2495 μL extracellular fluid, so that it was diluted 500 times to 40 μM, and was then serially diluted 3 times in an extracellular fluid containing 0.2% DMSO to obtain the final concentration to be tested.
The highest tested concentration was 40 μM, and the concentrations were in order as follows: 40, 13.33, 4.44, 1.48, 0.49, 0.16 μM, totally 6 concentrations.
Experimental data were analyzed by XLFit software.

The mark [3] stands for this setting: male, mouse, iv, 5 mg/kg i.v., plasma.
Setting [4] is: male, mouse, po, 20 mg/kg p.o., plasma.

One may read the MRT as the average time that molecules of a dose stay in the body. As usually defined, the half-life is the time needed for the level to fall by half in the phase considered. What is called clearance is a measure of how efficiently the substance is removed, as volume per time. The Cmax is the highest concentration seen after dosing. A word on the Tmax: it is the time from dosing to the highest level. In general, IC50 refers to the midpoint of a concentration-inhibition curve. Regarding `Cl.N[C@]1(c2ccc(C(F)(F)F)cc2)CCC[C@H](O)C1=O` [Compound 51, (2S,6S)-2-amino-6-hydroxy-2-(4-(trifluoromethyl)phenyl)cyclohexane-1-one hydrochloride], the “1 h inhibition rate” value in the data set with C57 mice (forced swimming 1 h after single oral (intragastric) 20 mg/kg) came out at 66.9 ± 0.3%. Also, the “24 h inhibition rate” value in the data set with C57 mice (forced swimming 24 h after single oral (intragastric) 20 mg/kg) is reported as 38.6 ± 2.1%. Moreover, in data set [1] (5 mg/kg i.v., plasma), the AUC0-t came to 6471 ngh/mL and the “AUC0-∞” value is reported as 6567 ngh/mL. In data set [1] (20 mg/kg p.o. vs 5 mg/kg i.v.), this compound registered an F of 68.0%. Also, in data set [1] (20 mg/kg p.o., plasma), the AUC0-t was 17539 ngh/mL and the “AUC0-∞” value was 17877 ngh/mL. In data set [1] (setting [3]), this compound gave an MRT of 1.23 h and a half-life of 1.79 h. The clearance in data set [1] (male, mouse, plasma, iv, 5 mg/kg i.v.) stood at 13.5 mL/min/kg. Also, the Vd in data set [1] (male, mouse, plasma, iv, 5 mg/kg i.v., read-out: Vss) worked out at 0.98 L/kg. In data set [1] (setting [4]), the peak concentration (Cmax) was 7520 ng/mL, the MRT was 3.59 h, the time to peak (Tmax) was found to be 5 min and the half-life was 4.09 h. For the same compound, the “AUC0-∞” value in data set [2] (C57 mouse brain tissue, 20 mg/kg p.o.) worked out at 46324 ng·h/g. In data set [2] (male, brain, po, C57 mouse, 10 mg/kg p.o., 15 min), this compound yielded a concentration at 15 min of 5090 ng/g. The same compound yielded a concentration at 10 min in data set [2] (male, brain, po, C57 mouse, 20 mg/kg p.o. (intragastrically), 10 min) of 23500 ng/g. The same compound showed a half-life in data set [2] (male, po, C57 mouse brain tissue, 20 mg/kg p.o.) of 1.36 h. Also, the IC50 at hERG potassium channel was greater than 40 µM.
